Experimental data taken from patent publication US20260209705A1, “ENGINEERED NATURAL KILLER CELLS AND RELATED METHODS” (ASTELLAS PHARMA INC., priority 2022, published 2026).

Tests used:
[1] = tested on: Raji (Burkitt's lymphoma) cells; test: Raji i.p. tumor model, study of FIG. 23 (Table 2); assay type: in vivo, NSG mice; settings: single agent alone, compared to untreated
Description: FIG. 23 is a graphic of an efficacy study of FcR-UDC I-NK cells plus Rituximab in a Raji i.p. tumor model. NSG mice were irradiated and injected (i.p.) with Raji tumor cells (3×10^5). At day 4, FcR-UDC I-NK cells or PB-NK cells (each 5×10^6) with or without Rituximab (300 μg) was administered. At day 7, an additional dose of Rituximab (300 μg) was administered. Imaging/monitoring of the NSG mice occur at indicated time points through day 120.
FIGS. 24A-24C illustrate (FIG. 24A) a survival curve and (FIGS. 24B-24C) tumor burden following the efficacy study of FIG. 23. […] In FIGS. 24B-24C, FcR-UDC I-NK cells plus Rituximab and PB-NK plus Rituximab provided a durable response in delaying tumor onset through day 60 in 50% of the mice.
The efficacy of the UDC-NK cells against tumors in vivo was studied in a Raji intraperitoneal (i.p.) tumor model.
In FIG. 23, NSG mice were irradiated and injected i.p. with Raji (Burkitt's lymphoma) cells (3×10^5 cells). Raji cells are resistant to NK cells in the absence of an anti-CD20 antibody. At day four, 5×10^6 FcR-UDC I-NK cells and/or Rituximab (300 μg) was administered to the NSG mice. At day 7, a second dose of Rituximab (300 μg) was administered. […] The NSG mice were imaged and assessed for survival, BLI (tumor burden), and body weight and other health conditions at various days through day 121. […]

[2] = tested on: human PSC-derived engineered NK cells; test: effect of UM171 on NK differentiation (Step 2); assay type: cell-based; settings: 35 nM UM171 versus no UM171
Text: FIGS. 2A-2C are bar graphs illustrating the cell yield (FIG. 2A), percentage of CD56+CD45^+ cells (FIG. 2B), and cell viability (FIG. 2C) resulting from the method of producing human PSC-derived engineered NK cells (FcR-UDC I-NK cells) described herein.
Parental and engineered UDC PSCs (collectively, “PSCs”) were thawed, expanded, and cultured in mTeSR™ (STEMCELL Technologies, Cambridge, MA) feeder-free, animal component-free media for up to seven days on vitronectin. The PSCs were dissociated into single cells and transferred into microwell plates and cultured in STEMdiff™ APEL™2 and Gibco® PFHM-II media (STEMCELL Technologies, Cambridge, MA; ThermoFisher Scientific, Waltham, MA) for fourteen days to differentiate into precursor cells (via embryoid bodies) capable of differentiating to hematopoietic cell types, endothelial cell types, and/or mesodermal derivatives. The media was supplemented with BMP4 (20 ng/ml), VEGF (20 ng/ml), and SCF (40 ng/ml). Half media changes were performed every other day starting on day 3. The embryoid bodies were replated on DLL4/Retronectin-coated T75 flasks to differentiate into NK cells. The embryoid bodies were cultured under feeder free conditions in differentiation media comprising SCF (20 ng/ml), IL-7 (20 ng/ml), IL-15 (10 ng/ml), Flt3L (10 ng/mL), IL-3 ([…]) and 35 nM UM171 for 21 days in modified DMEM/F12. […]

claudin 6 (CLDN6) = biological target: T1, claudin 6 (CLDN6) (UniProt P56747); test: cell-based or functional assay
T1 sequence (looked up): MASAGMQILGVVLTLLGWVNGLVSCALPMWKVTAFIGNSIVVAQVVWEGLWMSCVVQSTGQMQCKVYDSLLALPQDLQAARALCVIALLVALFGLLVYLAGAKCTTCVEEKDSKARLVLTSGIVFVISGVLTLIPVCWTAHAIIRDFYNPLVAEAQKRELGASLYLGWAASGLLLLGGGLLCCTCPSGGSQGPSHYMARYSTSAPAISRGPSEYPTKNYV

EC50 of ADCC (specific lysis of PA-1 cells by FcR-UDC I-NK cells, four-hour flow-based assay, antibody titrated) (claudin 6 (CLDN6)) [ng/mL] | Molecule | also measured
 | Rituximab | mean survival [1]: increased mean survival
 | Br.Br.Cn1nnc(-c2ccc3c(c2)[nH]c2nc(Cc4ccccc4)nc(N[C@H]4CC[C@H](N)CC4)c23)n1.O.O [UM171, (1r,4r)-N1-(2-benzyl-7-(2-methyl-2H-tetrazol-5-yl)-9H-pyrimidol [4,5-b]indol-4-yl)cyclohexane-1,4-diamine dihydrobromide dihydrate] | UDC-NK cell yield during NK differentiation [2]: improved UDC-NK cell yield
4.32 | ASP1893 mAb (antibody) | 
8.49 | ASP1650 (antibody, from another filing, V domains shown) VH: EVQLQQSGPELVKPGASMKISCKASGYSFTGYTMNWVKQSHGKNLEWIGLINPYNGGTIYNQKFKGKATLTVDKSSSTAYMELLSLTSEDSAVYYCARDYGFVLDYWGQGTTLTVSS VL: IVLTQSPAIMSASPGEKVTITCSASSSVSYLHWFQQKPGTSPKLWVYSTSNLPSGVPARFGGSGSGTSYSLTISRMEAEDAATYYCQQRSIYPPWTFGGGTKLEIKR | 
